Experimental data published in PubChem BioAssay (NCI).
Where “and” joins values, the source holds several entries; their conditions need not be identical. Equal values may be shown once.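 Method: 48-hour compound exposure of cells in 96-well plates, five concentrations, linear interpolation of endpoints. GI50 marks 50% less growth. Definition used: TGI = concentration required for complete inhibition of growth.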

Assays:
Test in all cases: NCI anticancer screen, dose series, 48 h
SNB-78 CNS = test system: SNB-78 CNS
HS 578T breast = test system: HS 578T breast
UACC-257 melanoma = test system: UACC-257 melanoma
OVCAR-3 ovarian = test system: OVCAR-3 ovarian
SN12C renal = test system: SN12C renal
HL-60(TB) leukemia = test system: HL-60(TB) leukemia
HCC-2998 colon = test system: HCC-2998 colon
PC-3 prostate = test system: PC-3 prostate
COLO 205 colon = test system: COLO 205 colon
T-47D breast = test system: T-47D breast
SK-MEL-2 melanoma = test system: SK-MEL-2 melanoma
RXF-631 renal = test system: RXF-631 renal
K-562 leukemia = test system: K-562 leukemia
SF-268 CNS = test system: SF-268 CNS
NCI-H522 lung = test system: NCI-H522 lung
OVCAR-4 ovarian = test system: OVCAR-4 ovarian
DLD-1 colon = test system: DLD-1 colon
M14 melanoma = test system: M14 melanoma
M19-MEL melanoma = test system: M19-MEL melanoma
SK-MEL-28 melanoma = test system: SK-MEL-28 melanoma
U251 CNS = test system: U251 CNS
UO-31 renal = test system: UO-31 renal
KM12 colon = test system: KM12 colon
ACHN renal = test system: ACHN renal
OVCAR-5 ovarian = test system: OVCAR-5 ovarian
BT-549 breast = test system: BT-549 breast
NCI-H460 lung = test system: NCI-H460 lung
MDA-N = test system: MDA-N
SF-539 CNS = test system: SF-539 CNS
RPMI-8226 leukemia = test system: RPMI-8226 leukemia
RXF 393 renal = test system: RXF 393 renal
SK-OV-3 ovarian = test system: SK-OV-3 ovarian
NCI-H226 lung = test system: NCI-H226 lung
HOP-18 NSCLC = test system: HOP-18 NSCLC
A498 renal = test system: A498 renal
DMS 273 small cell lung = test system: DMS 273 small cell lung
HOP-92 NSCLC = test system: HOP-92 NSCLC
LOX IMVI melanoma = test system: LOX IMVI melanoma
HT29 colon = test system: HT29 colon
SK-MEL-5 melanoma = test system: SK-MEL-5 melanoma
MALME-3M melanoma = test system: MALME-3M melanoma
MOLT-4 leukemia = test system: MOLT-4 leukemia
SNB-19 CNS = test system: SNB-19 CNS
LXFL 529 NSCLC = test system: LXFL 529 NSCLC
HCT-116 colon = test system: HCT-116 colon
CAKI-1 renal = test system: CAKI-1 renal
786-0 renal = test system: 786-0 renal
HOP-62 NSCLC = test system: HOP-62 NSCLC
OVCAR-8 ovarian = test system: OVCAR-8 ovarian
DMS 114 small cell lung = test system: DMS 114 small cell lung
UACC-62 melanoma = test system: UACC-62 melanoma
XF 498 CNS = test system: XF 498 CNS
EKVX NSCLC = test system: EKVX NSCLC
KM20L2 colon = test system: KM20L2 colon
SR leukemia = test system: SR leukemia
SF-295 CNS = test system: SF-295 CNS
IGROV1 ovarian = test system: IGROV1 ovarian
NCI-H23 lung = test system: NCI-H23 lung
SNB-75 CNS = test system: SNB-75 CNS
MCF7 breast = test system: MCF7 breast
DU-145 prostate = test system: DU-145 prostate
SW-620 colon = test system: SW-620 colon
CCRF-CEM leukemia = test system: CCRF-CEM leukemia

## Cc1cc(-c2c(F)cc3c4nn([C@H]5CC[C@@H](N(C)C)CC5)c(=O)c-4cn(C4CC4)c3c2F)cc(C)n1
SNB-78 CNS
  GI50: 669 nM
  TGI: 11500 nM and 6930 nM
HS 578T breast
  TGI: 6250 nM
UACC-257 melanoma
  TGI: 5770 nM
OVCAR-3 ovarian
  TGI: 2660 nM
SN12C renal
  GI50: 20.7 nM
  TGI: 88.8 nM
HL-60(TB) leukemia
  GI50: 3.06 nM
  TGI: 32.2 nM and 235 nM
HCC-2998 colon
  GI50: 36.9 nM
  TGI: 108 nM and 1010 nM
PC-3 prostate
  TGI: > 100000 nM
COLO 205 colon
  GI50: 36.6 nM
  TGI: 93.6 nM and 889 nM
T-47D breast
  TGI: 2760 nM
SK-MEL-2 melanoma
  GI50: 73.5 nM
  TGI: 256 nM and 1940 nM
RXF-631 renal
  TGI: 256 nM
K-562 leukemia
  GI50: 164 nM
SF-268 CNS
  GI50: 28.5 nM
  TGI: 151 nM and 890 nM
NCI-H522 lung
  GI50: 32.5 nM
  TGI: 144 nM and 771 nM
OVCAR-4 ovarian
  GI50: 316 nM
DLD-1 colon
  GI50: 156 nM
  TGI: 2850 nM
M14 melanoma
  GI50: 53.9 nM
M19-MEL melanoma
  GI50: 247 nM
  TGI: 507 nM and 1590 nM
SK-MEL-28 melanoma
  GI50: 68.9 nM
  TGI: 368 nM and 3340 nM
U251 CNS
  TGI: 814 nM
UO-31 renal
  GI50: 275 nM
  TGI: 566 nM and 3290 nM
KM12 colon
  TGI: 1110 nM
ACHN renal
  GI50: 21.9 nM
  TGI: 171 nM and 928 nM
OVCAR-5 ovarian
  TGI: 14200 nM
BT-549 breast
  TGI: 10800 nM
NCI-H460 lung
  TGI: 273 nM
MDA-N
  TGI: 6750 nM
SF-539 CNS
  GI50: 56.1 nM
  TGI: 174 nM and 620 nM
RPMI-8226 leukemia
  GI50: 29.4 nM
RXF 393 renal
  TGI: 1390 nM
SK-OV-3 ovarian
  GI50: 54.6 nM
  TGI: 141 nM and 708 nM
NCI-H226 lung
  GI50: 36.8 nM
  TGI: 118 nM and 586 nM
HOP-18 NSCLC
  TGI: 919 nM
A498 renal
  GI50: 141 nM
  TGI: 55.8 nM and 471 nM
DMS 273 small cell lung
  GI50: 30 nM
  TGI: 37.2 nM and 172 nM
HOP-92 NSCLC
  GI50: 244 nM
LOX IMVI melanoma
  TGI: 571 nM
HT29 colon
  TGI: 1100 nM
SK-MEL-5 melanoma
  TGI: 982 nM
MALME-3M melanoma
  GI50: 31.8 nM
  TGI: 208 nM and 1670 nM
MOLT-4 leukemia
  GI50: 2 nM
SNB-19 CNS
  TGI: > 100000 nM
LXFL 529 NSCLC
  GI50: 227 nM
  TGI: 267 nM and 1310 nM
HCT-116 colon
  GI50: 39.1 nM
  TGI: 356 nM and 1270 nM
CAKI-1 renal
  GI50: 185 nM
  TGI: 346 nM and 1110 nM
786-0 renal
  GI50: 20.2 nM
  TGI: 52.6 nM and 363 nM
HOP-62 NSCLC
  GI50: 18 nM
  TGI: 78.4 nM and 455 nM
OVCAR-8 ovarian
  TGI: 808 nM
DMS 114 small cell lung
  GI50: 111 nM
  TGI: 124 nM and 360 nM
UACC-62 melanoma
  GI50: 46.8 nM
  TGI: 255 nM and 754 nM
XF 498 CNS
  GI50: 394 nM
  TGI: 757 nM and 2290 nM
EKVX NSCLC
  TGI: 5960 nM
KM20L2 colon
  TGI: 462 nM
SR leukemia
  GI50: 2 nM
  TGI: 26.8 nM
SF-295 CNS
  TGI: 717 nM
IGROV1 ovarian
  GI50: 278 nM
NCI-H23 lung
  GI50: 20.7 nM
  TGI: 79 nM and 554 nM
SNB-75 CNS
  GI50: 158 nM
  TGI: 190 nM and 540 nM
MCF7 breast
  TGI: > 100000 nM
DU-145 prostate
  TGI: 8710 nM
SW-620 colon
  TGI: 1360 nM
CCRF-CEM leukemia
  GI50: 3.3 nM
